In patent US8273705B2, “Conversion of apoptotic proteins” (The Burnham Institute, priority 2002, dated 2012):
Each block holds one molecule with its values, some of them ahead of it. d = 2'-deoxy (DNA); r = 2'-OH (RNA)

Experiments:
[1] = tested on: peripheral blood lymphocytes (PBLs); assay: Apoptosis of peripheral blood lymphocytes; format: cell-based, human; settings: oligonucleotide transfected
Method: Isolation and transfection of human peripheral blood lymphocytes (PBLs)—Leukocyte-enriched buffy coats from San Diego Blood Bank were diluted with 2 volumes of PBS, and PBLs were isolated by centrifuge on Ficoll-paque™ Plus (Amersham Pharmacia biotech). The mononuclear cells were cultured in RPMI containing 10% FBS and 20 μM Hepes. Freshly isolated cells (10^7 cells per transfection) were washed once with PBS containing 0.5% BSA and supernatant was completely discarded so that no residual PBS/BSA covers the pellet. The cells were resuspended in 100 μl of the human T Cell Nucleofector™ solution (Amexa biosystems) and very gently mixed with 1-4 μg DNA in 5 μl. The cell suspension was transferred into a cuvette supplied by Amexa biosystems and electroporated using U-14 program of Nucleofector™ device. The cells were removed from the cuvette quickly by adding 500 μl of the pre-warmed RPMI medium containing 10% FBS and 20 μM Hepes and transferred into 12 well plates containing 1.5 ml of pre-warmed culture medium.

[2] = tested on: H460 lung cancer cells; assay: TR3 induction and apoptosis in H460 lung cancer cells; format: cell-based
Method: (§1) In addition to TPA, AHPN and its structural analogs also induce TR3 expression and TR3-dependent apoptosis in an epithelial cancer cell line. […] Lysates were then incubated with anti-Bcl-2 antibody. Immunoblotting of immunoprecipitates was conducted using anti-TR3 and anti-Bcl-2 antibodies.
BH3-only proteins exert their apoptotic effects through either Bax or Bak. The involvement of Bax and Bak in Bcl-2-dependent apoptosis induced by TR3 was therefore examined.
To determine whether Bak, which was highly expressed in H460 cells, played a role in Bcl-2-dependent apoptosis induced by TR3, the effects of Bak siRNA transfection was examined. […] Thus, Bcl-2-dependent apoptosis induced by TR3 depends on multidomain pro-apoptotic Bcl-2-family proteins such as Bak.

[3] = tested on: MGC80-3 cells; assay: TR3-dependent apoptosis in MGC80-3 cells with Bcl-2 siRNA; format: cell-based; settings: control GFP-siRNA-transfected MGC80-3 cells
Method: Bcl-2 siRNAs and antisense oligonucleotides—The target siRNA SMARTPOOLs® for Bcl-2 and Bak and the siRNA oligonucleotide for TR3 (5′-CAG UCC AGC CAU GCU CCU dTdT) (SEQ ID NO: 2) were purchased from Dharmacon Research Inc. Target or control siRNA were transfected at a final concentration of 200 nM into cells at 40% confluency using Oligofectamine reagent (Invitrogen) according to the manufacturer's recommendations. After 48 h, cells were analyzed. Bcl-2 antisense oligonucleotide targeting Bcl-2 and negative control oligonucleotides were obtained from Calbiochem. They (2.5 μM) were transfected into cells at 60% confluency for 36 h before analysis.
The effect of inhibiting endogenous Bcl-2 expression on the TR3-dependent apoptosis in MGC80-3 cells was next analyzed. […] However, 3-Cl-AHPC-induced apoptosis was suppressed by more than half (about 60%) in Bcl-2 siRNA-transfected cells. Similar results were obtained in H460 lung cancer cells. […] Thus, Bcl-2 can manifest a pro-apoptotic phenotype in settings where TR3 is expressed and targets to mitochondria.

[4] = tested on: MGC80-3 gastric cancer cells; assay: TR3 mitochondrial targeting in MGC80-3 gastric cancer cells; format: cell-based; settings: MGC80-3 cells treated with 3-Cl-AHPC
Method: C. Small interfering RNA (siRNA)—To complement these gene transfection experiments, a small interfering (si)RNA approach was used to determine the effect of suppressing endogenous Bcl-2 expression on TR3 mitochondrial targeting. […] After 48 h, lysates were prepared and assayed by immunoblotting using anti-Bcl-2 and anti-β-actin antibodies.

[5] = tested on: TR3/Bcl-2 interaction; assay: Co-IP of TR3 and Bcl-2 in H460 lung cancer cells; format: cell-based; settings: 10^−6 M for 3 hours
Method: as §1

[6] = tested on: primary dopaminergic neurons; assay: TR3 localization in primary dopaminergic neurons; format: cell-based, rat; settings: 100 μM, one hour
Method: To further investigate TR3 targeting of mitochondria, rat primary neurons were treated with the dopaminergic neurotoxin 1-methyl-4-phenyl-1,2,3,6-tetrahydropyridine (MPTP). MPTP induces Parkinson's disease in animals. […] Neurons were identified by staining with neuron marker. TR3 and mitochondria (Hsp60) were visualized using confocal microscopy. […] TR3 was found only in the nucleus of non-treated neurons. Thus, TR3 mitochondrial localization plays a role in mediating the effect of dopaminergic neurotoxin in neurons.

[7] = tested on: 293T cells; assay: DAPI apoptosis assay in 293T cells; format: cell-based, human; settings: 293T, transfected alone, 36 h, DAPI
Method: Apoptosis assays—For nuclear morphological change analysis, cells were trypsinized, washed with PBS, fixed with 3.7% paraformaldehyde, and stained with DAPI (4,6-diamidino-2-phenylindole) (50 μg/ml) to visualize the nuclei by UV-microscopy. The percentages of apoptotic cells were determined by counting 300 GFP-positive cells, scoring cells having nuclear fragmentation and/or chromatin condensation.
DAPI staining was used to study the apoptotic effect of TR3/Bcl-2 interaction. 293T cells were transfected with GFP-TR3/ΔDBD alone or together with Bcl-2. After 36 h, nuclei were stained by DAPI and nuclear fragmentation and chromatin condensation were identified. Cells were also stained with anti-Bcl-2 antibody, followed by TRITC-conjugated secondary antibody (Sigma). Bcl-2 and GFP-ΔDBD expression and nuclear morphology were visualized by fluorescence microscopy, and the two images were overlaid. […] But, when Bcl-2 was cotransfected, a significant amount of transfected cells underwent apoptosis. For example, approximately 4% of cells transfected with either TR3/ΔDBD or Bcl-2 were apoptotic, compared to 35% of cell transfected with both. […]
To characterize the pro-apoptotic mechanism of Bcl-2 in the setting of TR3-induced apoptosis, various TR3 mutants and Bcl-2 mutants were co-expressed in HEK293T cells. […] Cells displaying nuclear condensation or fragmentation were scored. […]

[8] = tested on: cos-7 cells; assay: TCTP/Bcl-XL co-localization in cos-7 cells; format: cell-based; settings: cos-7, GFP-TCTP and RFP-Bcl-XL
From the text: Images were photographed with a confocal microscope.

[9] = target: T1, Bcl-XL (Homo sapiens, UniProt Q07817); assay: TCTP/Bcl-XL interaction (yeast two-hybrid, immunoprecipitation in HEK293T); format: binding
T1 construct: expressed in transfected cells; host or cells: HEK293T
T1 sequence (Q07817 whole entry): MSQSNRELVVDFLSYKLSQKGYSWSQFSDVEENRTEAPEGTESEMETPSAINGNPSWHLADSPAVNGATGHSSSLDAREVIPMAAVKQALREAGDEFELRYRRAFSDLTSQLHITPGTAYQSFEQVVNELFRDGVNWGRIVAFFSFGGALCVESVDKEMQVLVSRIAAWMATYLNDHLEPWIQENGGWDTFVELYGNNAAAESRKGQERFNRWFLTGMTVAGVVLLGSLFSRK
From the text: Bcl-XL cDNA was constructed into the pGilda yeast two-hybrid vector. Using pGilda-Bcl-XL as bait, a human testis cDNA library was used in yeast two-hybrid screening to screen for potential Bcl-XL interacting proteins. pGilda-Bcl-XL and a reporter plasmid pSH18-34 were co-transfected into EGY48 yeast cells. The transfectant yeast cells were then transfected in large scale with yeast two-hybrid library cDNA plasmids. Positive clones were identified through selection in Leucine-deficient media. A total of 95 positive colonies were identified. These positive clones were further examined for a second reporter expression by β-gal filter assays. Among these clones, 29 of them tested positive. These clones were further examined by mating assays to confirm the interaction with Bcl-XL. Ten positive clones were isolated and sequenced to reveal their identity. Two of them encode cDNAs identical to human Translationally-Controlled Tumor Protein (TCTP).
TCTP is a calcium-binding protein with no previous identified role in apoptosis regulation. […] Cell lysates were immunoprecipitated with polyclonal anti-GFP antibody. The immunoprecipitates or the lysates were blotted with anti-HA or anti-GFP antibodies, respectively.

[10] = tested on: cos-7 cells; assay: TCTP-induced apoptosis (DAPI) in cos-7 cells; format: cell-based
Method: Cells were fixed and stained with DAPI 48 hours after transfection (n≧200 total cells evaluated) and the percentage of apoptotic cells was calculated (mean±SD, n=3) (FIG. 7).

Molecule: 5′-CAG UCC AGC CAU GCU CCU dTdT (CAGUCCAGCCAUGCUCCUTT; siRNA; sugars from the 5' end r18 d2, backbone not given here) [TR3 siRNA, reference compound]
- TPA/ionomycin-induced apoptosis of PBLs [1]: partially inhibited

Molecule: O=C(O)/C=C/c1ccc(-c2ccc(O)c(C34CC5CC(CC(C5)C3)C4)c2)c(Cl)c1 [3-Cl-AHPC]
- apoptosis [2]: extensive apoptosis
- TR3 expression, mitochondrial targeting and apoptosis ([2]; 10^−6 M for 3 hours): potently induces TR3 expression, mitochondrial targeting and apoptosis
- apoptosis [3]: resulted in apoptosis
- endogenous TR3 localization [4]: targeted mitochondria
- co-immunoprecipitation of TR3 with anti-Bcl-2 antibody [5]: demonstrated co-immunoprecipitation of TR3

Molecule: CN1CC=C(c2ccccc2)CC1 [MPTP, 1-methyl-4-phenyl-1,2,3,6-tetrahydropyridine]
- endogenous TR3 localization [6]: found exclusively in the cytoplasm and colocalized with mitochondria

Molecule: Bcl-2: Bcl-2 expression vector transfected into cells
- apoptotic cells [7]: approximately 4%

- interaction with Bcl-XL [9]: interacts with Bcl-XL
Molecule: TCTP: human Translationally-Controlled Tumor Protein
- subcellular localization with Bcl-XL [8]: recruits TCTP from cytosolic location to the mitochondria
- apoptosis ([10]; expressed together with Bcl-XL versus without Bcl-XL, 48 hours): More apoptosis
- apoptosis ([10]; over-expressed in cells): induces apoptosis
